The source of these data is ChEMBL document CHEMBL1144622, “Novel malonamide derivatives as potent kappa opioid receptor agonists” (Bioorg Med Chem Lett, 2007).

In assay [1] the target is Kappa-type opioid receptor (Homo sapiens, UniProt P41145). Description: Agonist activity at human kappa opioid receptor by [35S]GTP-gamma-S binding assay. Type of assay: functional. (Binding of GTPγS marks nucleotide exchange on a G protein.)
The target in another assay is Cytochrome P450 2D6 (Homo sapiens, UniProt P10635). Description: Inhibition of CYP2D6. The assay is classed as ADME.
In assay [2] the target is Opioid receptors; delta & kappa (Homo sapiens) (UniProt P41145+P41143). Description: Selectivity for human kappa opioid receptor over human delta opioid receptor. The assay is classed as functional.
Assay [3] addresses Opioid receptors; mu & kappa (Homo sapiens) (UniProt P41145+P35372). Briefly: Selectivity for human kappa opioid receptor over human mu opioid receptor. Type of assay: functional.
Another assay has as its system Rattus norvegicus. Description: Antinociceptive activity in rat at 300 ug, sc by formalin-induced flinching assay. The assay is classed as functional.
Another assay deals with Mus musculus. Briefly: Analgesic activity in sc dosed mouse assessed as inhibition of acetic acid-induced writhing. Type of assay: functional. For orientation: Writhing tests count abdominal constrictions after an irritant is injected.

The structures appear in SMILES notation.

Cytochrome P450 2D6, sequence (P10635 whole entry): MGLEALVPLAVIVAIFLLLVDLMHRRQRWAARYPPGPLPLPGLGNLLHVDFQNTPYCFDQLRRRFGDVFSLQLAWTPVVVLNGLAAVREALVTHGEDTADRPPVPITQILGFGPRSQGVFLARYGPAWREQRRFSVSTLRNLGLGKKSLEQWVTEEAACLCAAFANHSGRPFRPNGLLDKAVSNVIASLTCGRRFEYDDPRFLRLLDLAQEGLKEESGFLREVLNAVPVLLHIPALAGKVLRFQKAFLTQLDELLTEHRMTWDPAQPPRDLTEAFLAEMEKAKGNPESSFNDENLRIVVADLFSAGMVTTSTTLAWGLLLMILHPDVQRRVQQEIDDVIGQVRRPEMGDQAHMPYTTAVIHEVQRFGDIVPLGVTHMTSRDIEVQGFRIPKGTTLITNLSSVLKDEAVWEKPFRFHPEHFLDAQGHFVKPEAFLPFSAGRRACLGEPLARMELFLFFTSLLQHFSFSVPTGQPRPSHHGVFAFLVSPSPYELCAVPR
Kappa-type opioid receptor, sequence (P41145 whole entry): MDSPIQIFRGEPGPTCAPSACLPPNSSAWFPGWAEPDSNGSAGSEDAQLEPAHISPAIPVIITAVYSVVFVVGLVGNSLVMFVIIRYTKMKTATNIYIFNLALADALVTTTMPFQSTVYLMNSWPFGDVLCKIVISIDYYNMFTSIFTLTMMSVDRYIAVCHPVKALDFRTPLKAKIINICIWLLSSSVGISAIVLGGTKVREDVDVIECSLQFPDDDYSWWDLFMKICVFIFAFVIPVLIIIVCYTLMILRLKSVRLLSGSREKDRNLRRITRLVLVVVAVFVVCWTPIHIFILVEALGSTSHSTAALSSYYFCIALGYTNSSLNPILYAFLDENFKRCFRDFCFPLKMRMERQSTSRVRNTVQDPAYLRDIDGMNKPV
Opioid receptors; mu & kappa (Homo sapiens), sequence (P35372 whole entry, looked up): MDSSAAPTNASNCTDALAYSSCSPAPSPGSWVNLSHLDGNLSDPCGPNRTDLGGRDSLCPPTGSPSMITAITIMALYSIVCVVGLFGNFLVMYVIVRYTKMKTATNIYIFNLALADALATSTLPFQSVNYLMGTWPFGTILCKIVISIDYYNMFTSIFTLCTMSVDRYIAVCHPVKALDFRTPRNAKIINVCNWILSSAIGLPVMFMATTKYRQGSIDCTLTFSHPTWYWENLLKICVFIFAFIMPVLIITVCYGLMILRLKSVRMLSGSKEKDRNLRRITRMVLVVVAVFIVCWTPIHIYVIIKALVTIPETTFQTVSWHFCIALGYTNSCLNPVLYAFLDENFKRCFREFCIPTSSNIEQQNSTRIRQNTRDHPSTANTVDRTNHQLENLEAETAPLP
Opioid receptors; mu & kappa (Homo sapiens), sequence (P41145 whole entry, looked up): as the sequence (P41145 whole entry) above
Opioid receptors; delta & kappa (Homo sapiens), sequence (P41143 whole entry, looked up): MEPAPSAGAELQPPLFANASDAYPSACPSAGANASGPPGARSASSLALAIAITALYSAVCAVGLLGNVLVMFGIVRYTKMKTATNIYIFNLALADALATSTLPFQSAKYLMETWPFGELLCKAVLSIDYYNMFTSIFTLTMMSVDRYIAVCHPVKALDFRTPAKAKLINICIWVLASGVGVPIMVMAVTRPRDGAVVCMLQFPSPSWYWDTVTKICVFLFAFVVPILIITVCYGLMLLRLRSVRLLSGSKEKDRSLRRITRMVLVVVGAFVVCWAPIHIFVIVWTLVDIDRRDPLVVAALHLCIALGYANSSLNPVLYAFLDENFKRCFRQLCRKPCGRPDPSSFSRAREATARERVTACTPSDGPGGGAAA
Opioid receptors; delta & kappa (Homo sapiens), sequence (P41145 whole entry, looked up): as the sequence (P41145 whole entry) above

The term Ki denotes a measure of affinity in units of concentration, obtained from inhibition or displacement. High values mean a looser hold on the target, low ones a stronger hold on the target. As a reminder, the IC50 is the concentration at which inhibition is half-maximal. In the case of `CN(C(=O)CCC(=O)Nc1nccs1)[C@H](CN1CC[C@H](O)C1)c1ccccc1`, the affinity in assay [1], expressed as Ki, was 23 nM. The compound also registered an IC50 on Cytochrome P450 2D6 of 3400 nM. Further, in assay [2], the Ratio Ki was 14.
For `CN(C(=O)CCC(=O)Nc1cccnc1)[C@H](CN1CC[C@H](O)C1)c1ccccc1`, in that order: 280 nM, over 10000 nM and 5.
On to `CN(C(=O)CC(=O)NCc1ccccc1)[C@H](CN1CC[C@H](O)C1)c1ccccc1`, for which the inhibition constant (Ki) in assay [1] was determined as 15 nM. The Ratio Ki came out at 120 in assay [3] and 40 in assay [2]. The compound also came in with an IC50 on Cytochrome P450 2D6 of 3200 nM.
For `CN(C(=O)CC(=O)Nc1cccnc1)[C@H](CN1CC[C@H](O)C1)c1ccccc1`, in that order: 1.3 nM, 450, 15 and over 10000 nM.
In assay [1], `CN(C(=O)CC(=O)Nc1ccc(NS(C)(=O)=O)cc1)[C@H](CN1CC[C@H](O)C1)c1ccccc1` came in with a Ki of 29 nM. In addition, the Ratio Ki in assay [3] stood at 4.8; in assay [2] it was 39. For the same compound, on Cytochrome P450 2D6, half-maximal inhibition (IC50) required 10000 nM.
For `CN(C(=O)NCC(=O)Nc1ccccc1)[C@H](CN1CC[C@H](O)C1)c1ccccc1`, in that order: 6.5 nM, 110, 8.7 and 5100 nM.
Compound `CN(C(=O)CCC(=O)Nc1ccccc1)[C@H](CN1CC[C@H](O)C1)c1ccccc1` returned a Ki in assay [1] of 6 nM. Also, the IC50 at Cytochrome P450 2D6 stood at 8600 nM. The Ratio Ki in assay [2] came to 220.
As to `CN(C(=O)CC(=O)Nc1nccs1)[C@H](CN1CC[C@H](O)C1)c1ccccc1`, in assay [1], the affinity, expressed as Ki, was 0.53 nM. Further, the Ratio Ki in assay [3] was 180; in assay [2] it was 71. The compound further registered an IC50 against Cytochrome P450 2D6 of 700 nM.
By ED50 is commonly meant the dose that gives a 50% effect, or the effect in half of the subjects. The compound `CN(C(=O)CC(=O)Nc1ccccc1)[C@H](CN1CC[C@H](O)C1)c1ccccc1` came in with an Activity in the assay with Rattus norvegicus of 93%. Moreover, the Ki in assay [1] came out at 0.27 nM. Moreover, the Ratio Ki in assay [3] worked out at 120; in assay [2] it was 25. In addition, the ED50 with Mus musculus was found to be 0.03 mg/kg. At Cytochrome P450 2D6, the IC50 turned out to be 5300 nM.
Turning to `CN(C(=O)CC(=O)Nc1ccc(CNS(C)(=O)=O)cc1)[C@H](CN1CC[C@H](O)C1)c1ccccc1`, in assay [1], the Ki was 96 nM. The values for the Ratio Ki in assay [3] and in assay [2] were 4.3 and 10, respectively. The IC50 on Cytochrome P450 2D6 turned out to be 5400 nM.
